Laboratory results taken from patent publication US20230066286A1, “DEUTERATED TRYPTAMINE DERIVATIVES AND METHODS OF USE” (priority 2020, published 2023).

Columns and labels:
[1] = Blood-to-plasma ratio (BPR), parent drug in brain and plasma of rats; type: in vivo, rat; conditions: % change vs. non-deuterated material
Procedure: (§1) The key PK parameters (presented as a % change vs. non-deuterated materials) are presented in Table 3 to include half-life (T½), area under the curve (AUC), bioavailability (F) and blood-to-plasma ration (BPR). Pharmacokinetics of the deuterated tryptamines was studied in rats. In a typical experiment, run as a cassette dosing, two groups of 5 Wistar female rats (200-250 g) with surgically inserted jugular vein catheter (Charles River, Andover, MA) were fasted for 12 h and then administered 5 mg/kg of the deuterated and 5 mg/kg of the related non-deuterated analog, by oral gavage or via a catheter for each group. At time points 0, 15, 30, 60 min, and 2, 4, 8, and 24 h, the resulting plasma was analyzed for the parent molecule using LC/MS spectroscopy. Two separate groups of 5 animals were used for determining blood-to-plasma ratio (BPR). Each group was sacrificed at time points 15 and 30 min, respectively, and the concentration of the parent drug was determined in the […] and plasma by LC/MS spectroscopy.

[2] = PK study in rats, cassette dosing; type: in vivo, rat; conditions: % change vs. non-deuterated material, 5 mg/kg, oral gavage or via catheter
Procedure: as §1

hrMAO-A = target: T1, hrMAO-A (Homo sapiens, UniProt P21397); test: Metabolic stability in the presence of hrMAO-A; type: in vitro ADME; conditions: for MAO, % (half-life as % vs. the related nondeuterated compound) / MAO (metabolized or not): MAO-A assay; for MAO, % (half-life as % vs. the related nondeuterated compound): values in square brackets are within 10% difference (assay's accuracy), no deuteration effect; for MAO (metabolized or not): last time point 120 min
T1 construct: purchased XenoTech Lot# 8213001
T1 sequence (P21397 1-527): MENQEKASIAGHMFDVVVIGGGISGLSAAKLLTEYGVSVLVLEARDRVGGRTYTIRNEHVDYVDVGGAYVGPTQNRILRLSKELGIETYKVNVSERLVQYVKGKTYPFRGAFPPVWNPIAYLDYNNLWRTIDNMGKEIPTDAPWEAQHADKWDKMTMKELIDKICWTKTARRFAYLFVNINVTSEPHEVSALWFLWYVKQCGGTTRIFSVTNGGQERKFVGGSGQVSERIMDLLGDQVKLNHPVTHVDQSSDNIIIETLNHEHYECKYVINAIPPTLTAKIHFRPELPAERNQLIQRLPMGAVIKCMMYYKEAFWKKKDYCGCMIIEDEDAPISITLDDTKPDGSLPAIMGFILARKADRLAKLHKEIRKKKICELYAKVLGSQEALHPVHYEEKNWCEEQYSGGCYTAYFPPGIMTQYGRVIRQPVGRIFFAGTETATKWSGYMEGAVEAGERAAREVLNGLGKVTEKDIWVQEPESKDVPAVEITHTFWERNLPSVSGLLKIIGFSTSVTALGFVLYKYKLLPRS
Procedure: The reaction mixture was prepared as described below. The co-dosed TAs were added into the reaction mixture at a final concentration of 1 microM each. The positive control, kynuramine (25 microM), was run simultaneously with the TAs in a separate reaction. The reaction mixture (without TAs or kynuramine) was equilibrated in a shaking water bath at 37° C. for 5 minutes. The reaction was initiated by the addition of the TAs or kynuramine, and the mixture was incubated in a shaking water bath at 37° C. Aliquots (100 microL) of the TA reaction mixture were withdrawn at 0, 5, 10, 20, 30, 60, and 120 minutes. Aliquots (100 microL) of the positive control reaction mixture were withdrawn at 0 and 30 minutes. TA and kynuramine samples were immediately combined with 100 microL of ice-cold 100% MeCN containing 0.1% formic acid and IS to terminate the reaction. The samples were then mixed and centrifuged to precipitate proteins. All TA samples were assayed by LC-HRAMS. The PARR (analyte to IS) at each time point was compared to the PARR at time 0 to determine the percent remaining at each time point. Reaction composition: hrMAO 0.02 mg/mL; Potassium Phosphate, pH 7.4 100 mM; Magnesium Chloride 5 mM; Test Articles (each) 1 microM.

rat liver microsomes = test: Metabolic stability in rat liver microsomes (RLM); conditions: for RLM (metabolized or not): last time point 120 min; for RLM, % (half-life as % vs. the related nondeuterated compound): values in square brackets are within 10% difference (assay's accuracy), no deuteration effect
[3] = oral; cited from earlier work

[2H]C([2H])(Cc1c[nH]c2ccc(OC)cc12)N(C)C [5-MeO-DMT-α,α-d2]
BPR, 15 min, deuterium kinetic isotope effect (% change) ([1]; rats sacrificed at 15 min): 120% | BPR, 30 min, deuterium kinetic isotope effect (% change) ([1]; rats sacrificed at 30 min): 180% | AUC, deuterium kinetic isotope effect (% change) [2]: 60% | T½, deuterium kinetic isotope effect (% change) [2]: 30%

[2H]C([2H])(Cc1c[nH]c2ccccc12)NC([2H])([2H])C([2H])([2H])[2H]
MAO, % (half-life as % vs. the related nondeuterated compound) (hrMAO-A): 170%

[2H]C([2H])(c1c[nH]c2ccccc12)C([2H])([2H])N(C)C [DMT-d4]
CLint (hrMAO-A; hrMAO-A, four test articles): 0.119 mL/min/ mg protein | % Remaining of Initial 0 min (hrMAO-A; hrMAO-A, four test articles): 100% | % Remaining of Initial 0 min (rat liver microsomes; RLM, four test articles): 100%

CCN(CC)CCc1c[nH]c2ccc(O)cc12
RLM (metabolized or not) (rat liver microsomes; RLM assay): R

[2H]C([2H])(NC)C([2H])([2H])c1c[nH]c2cccc(O)c12
RLM, % (half-life as % vs. the related nondeuterated compound) (rat liver microsomes; RLM assay): 160%

COc1ccc2[nH]cc(CCN(C)C)c2c1
MAO (metabolized or not) (hrMAO-A): R | RLM (metabolized or not) (rat liver microsomes; RLM assay): R

CN(C)CCc1c[nH]c2ccc(O)cc12
MAO (metabolized or not) (hrMAO-A): R | RLM (metabolized or not) (rat liver microsomes; RLM assay): R

[2H]c1ccc2[nH]c([2H])c(CCN([2H])CC)c2c1O
RLM (metabolized or not) (rat liver microsomes; RLM assay): R

CCN(C)CCc1c[nH]c2ccccc12
MAO (metabolized or not) (hrMAO-A): R | RLM (metabolized or not) (rat liver microsomes; RLM assay): R

COc1cc(CCNCc2ccccc2OC)c(OC)cc1Cl [2C-C-NBOMe, 2-(4-Chloro-2,5-dimethoxyphenyl)-N-[(2-methoxyphenyl)methyl]ethan-l-amine]
orally active dose, as low as [3]: 25 µg | very strong psychedelic doses [3]: 500 to 700 µg

[2H]C([2H])(c1c[nH]c2cccc(OC)c12)C([2H])([2H])N(C)C
RLM, % (half-life as % vs. the related nondeuterated compound) (rat liver microsomes; RLM assay): 190%

CCNCCc1c[nH]c2ccccc12
MAO (metabolized or not) (hrMAO-A): R | RLM (metabolized or not) (rat liver microsomes; RLM assay): R

[2H]C([2H])([2H])N(C([2H])([2H])[2H])C([2H])([2H])C([2H])([2H])c1c[nH]c2ccccc12 [DMT-d10]
stability in the MAO-A enzymatic assay vs. less deuterated DMT analogs (hrMAO-A; MAO-A enzymatic assay): superiority | % Remaining of Initial 0 min (hrMAO-A; hrMAO-A, d8 and d10 analogs of DMT): 100.0% | % Remaining of Initial 5 min (hrMAO-A; hrMAO-A, d8 and d10 analogs of DMT, 5 min): 99.0% | % Remaining of Initial 0 min (hrMAO-A; hrMAO-A, four test articles): 100% | % Remaining of Initial 0 min (rat liver microsomes; RLM, d8 and d10 analogs of DMT): 100% | % Remaining of Initial 10 min (rat liver microsomes; RLM, d8 and d10 analogs of DMT, 10 min): 56.0% | % Remaining of Initial 0 min (rat liver microsomes; RLM, four test articles): 100% | metabolic stability vs. less deuterated DMT analogs (rat liver microsomes; rat liver microsomes): Further enhancement of metabolic stability

CCN(CC)CCc1c[nH]c2cccc(OC)c12
RLM (metabolized or not) (rat liver microsomes; RLM assay): R

[2H]C([2H])([2H])C([2H])([2H])NC([2H])([2H])C([2H])([2H])c1c[nH]c2cccc(O)c12
RLM, % (half-life as % vs. the related nondeuterated compound) (rat liver microsomes; RLM assay): [93] %

[2H]C([2H])(c1c[nH]c2cccc(O)c12)C([2H])([2H])N(C(C)C)C(C)C
RLM, % (half-life as % vs. the related nondeuterated compound) (rat liver microsomes; RLM assay): [97] %

CCN(C)CCc1c[nH]c2ccc(OC)cc12
MAO (metabolized or not) (hrMAO-A): R | RLM (metabolized or not) (rat liver microsomes; RLM assay): R

C=CCNCCc1c[nH]c2ccccc12
RLM (metabolized or not) (rat liver microsomes; RLM assay): R

[2H]C([2H])(NCC)C([2H])([2H])c1c[nH]c2cccc(O)c12
RLM, % (half-life as % vs. the related nondeuterated compound) (rat liver microsomes; RLM assay): [94] %

CCN(CC)CCc1c[nH]c2ccccc12
RLM (metabolized or not) (rat liver microsomes; RLM assay): R

CCN(C)CCc1c[nH]c2ccc(O)cc12
MAO (metabolized or not) (hrMAO-A): R | RLM (metabolized or not) (rat liver microsomes; RLM assay): R

CCN(C)CCc1c[nH]c2cccc(OC)c12
MAO (metabolized or not) (hrMAO-A): R | RLM (metabolized or not) (rat liver microsomes; RLM assay): R

[2H]C([2H])(c1c[nH]c2ccc(OC)cc12)C([2H])([2H])N(CC)CC
RLM, % (half-life as % vs. the related nondeuterated compound) (rat liver microsomes; RLM assay): [95] %

CCNCCc1c[nH]c2cccc(O)c12
RLM (metabolized or not) (rat liver microsomes; RLM assay): R

CN(C)CCc1c[nH]c2ccccc12 [DMT]
CLint (hrMAO-A; hrMAO-A, four test articles): 0.638 mL/min/ mg protein | % Remaining of Initial 0 min (hrMAO-A; hrMAO-A, four test articles): 100% | % Remaining of Initial 0 min (rat liver microsomes; RLM, four test articles): 100% | % Remaining of Initial 20 min (rat liver microsomes; RLM, four test articles, 20 min): 41.0%

CNCCc1c[nH]c2ccccc12
MAO (metabolized or not) (hrMAO-A): R | RLM (metabolized or not) (rat liver microsomes; RLM assay): R

C=CCN(CC=C)CCc1c[nH]c2ccccc12
RLM (metabolized or not) (rat liver microsomes; RLM assay): R

[2H]c1[nH]c2c([2H])c([2H])c([2H])c([2H])c2c1C([2H])([2H])C([2H])([2H])N(C([2H])([2H])[2H])C([2H])([2H])[2H] [DMT-dis]
half-life compared to DMT-d10 (rat liver microsomes; RLM assay, additional deuteration in the phenyl ring): no improvement in half-life

[2H]C([2H])(NCC)C([2H])([2H])c1c[nH]c2ccccc12
MAO, % (half-life as % vs. the related nondeuterated compound) (hrMAO-A): 140%

CC(C)NCCc1c[nH]c2cccc(O)c12
RLM (metabolized or not) (rat liver microsomes; RLM assay): R

CC(C)N(CCc1c[nH]c2cccc(O)c12)C(C)C
RLM (metabolized or not) (rat liver microsomes; RLM assay): R

CC(C)NCCc1c[nH]c2ccccc12
RLM (metabolized or not) (rat liver microsomes; RLM assay): R

COc1cccc2[nH]cc(CCN(C)C)c12
MAO (metabolized or not) (hrMAO-A): R | RLM (metabolized or not) (rat liver microsomes; RLM assay): R

CNCCc1c[nH]c2cccc(O)c12
MAO (metabolized or not) (hrMAO-A): R | RLM (metabolized or not) (rat liver microsomes; RLM assay): R

CCN(CC)CCc1c[nH]c2ccc(OC)cc12
RLM (metabolized or not) (rat liver microsomes; RLM assay): R

[2H]C([2H])(Cc1c[nH]c2ccccc12)N(C)C [DMT-d2]
CLint (hrMAO-A; hrMAO-A, four test articles): 0.126 mL/min/ mg protein | % Remaining of Initial 0 min (hrMAO-A; hrMAO-A, four test articles): 100% | % Remaining of Initial 60 min (hrMAO-A; hrMAO-A, four test articles, 60 min): 76.0% | % Remaining of Initial 0 min (rat liver microsomes; RLM, four test articles): 100% | % Remaining of Initial 60 min (rat liver microsomes; RLM, four test articles, 60 min): 32.0%
